From US12606533B2, “3-phenylpropylamine derivative” (DAIICHI SANKYO COMPANY, LIMITED, priority 2023, dated 2026)

Experiments:
SF-1 = biological target: T1, SF-1 (Homo sapiens, UniProt Q13285); assay: SF1 degradation induction in NCI-H295R SF-1-HiBiT cells (HiBiT DC50); format: cell-based; details: 24 hr, concentration that induces 50% degradation of SF-1
T1 construct: NCI-H295R SF-1-HiBiT cells with HiBiT tag knocked in at the endogenous SF1 locus; host or cells: NCI-H295R SF-1-HiBiT (knock-in at endogenous locus)
Procedure, shortened: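 NCI-H295R cells carrying HiBiT-tagged SF-1, plated and grown 24 hr, then exposed to serially diluted compounds for 24 hr at 37° C. Remaining SF-1 read by lytic HiBiT luminescence; degradation rate from treated vs compound-free signal, DC50 as concentration giving 50% degradation.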

NCI-H295R cells = assay: Proliferation inhibitory action on NCI-H295R (CellTiter-Glo, 7 days); format: cell-based, human; details: Homo sapiens, NCI-H295R, 168 h
Procedure, shortened: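 Compounds serially diluted in DMSO; cells seeded at 2×10^3 cells/well and cultured 7 days at 37° C, 5% CO2. CellTiter-Glo 2.0 luminescence read at day 0 and day 7; proliferation rate derived from compound-addition-day signal, untreated day-7 signal and treated day-7 signal.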

[1] = tested on: NCI-H295R cell subcutaneous transplant model; assay: Antitumor activity against NCI-H295R cell subcutaneous transplant model (adrenocortical carcinoma); format: in vivo, mouse; details: female NSG mice, oral 30 mg/kg/day QD x 10 to 11, day the test was terminated
Method: NCI-H295R cells were subcutaneously transplanted at 1.0 to 2.0×10^7 cells/head into the right flank of female NSG mice and, when the estimated tumor volume (major axis×minor axis×minor axis/2) reached 100 to 300 mm^3, the mice were divided into groups of 4 to 5 mice each such that no difference was present between groups. Female NSG mice were purchased from Charles River Japan Co., Ltd. From the day of grouping, each compound was orally administered at a dose of 30 mg/kg/day once a day for 10 to 11 consecutive days (QD×10 to 11). Individual estimated tumor volumes were measured from the day of grouping until 11 to 12 days after grouping (the day the test was terminated). To the vehicle-control group was administered 0.5% methylcellulose containing 6.2-6.4 mM mesylic acid.
The antitumor activity against the NCI-H295R cell subcutaneous transplant model in Experimental Example 5 was calculated by the following formula on the day the test was terminated.

[2] = tested on: xenograft model derived from a prostate cancer patient; assay: Antitumor activity in human prostate cancer cell subcutaneous transplant model (patient-derived xenograft); format: in vivo, mouse; details: male NSG mice, oral 100 mg/kg/day QD x 28 to 32, day of completion of test
Description: A xenograft model derived from a prostate cancer patient (obtained from the National Institute of Biomedical Innovation (NIBIO)) was used for antitumor evaluation. Tumors excised from seed mice were cut into about 4-5 mm squares and subcutaneously transplanted into the right flank of male NSG mice. On the fourth day after transplantation, the mice were divided into groups of 8 to 10 mice each to ensure uniformity of the seed mice. From the day of grouping, each compound was orally administered once a day at a dose of 100 mg/kg/day for 28 to 32 consecutive days (QD x 28 to 32). Individual estimated tumor volumes were measured from the day of grouping until the day after the final administration (the day of completion of test). To the vehicle-control group was administered 0.5% methylcellulose containing 21.3 mM mesylic acid.
The antitumor activity in the human prostate cancer cell subcutaneous transplant model was calculated by the following formula on the day of completion of each test.

mouse uterus = assay: Inhibitory activity on normal mouse uterine weight (inhibitory action on estrogen activity); format: in vivo; details: female NSG mice, oral 100 mg/kg/day QD x 8, 24 hr after final administration, relative to vehicle control group
Method: Female NSG mice were purchased from Charles River Japan, Inc. From the day of grouping, each compound was orally administered at a dose of 100 mg/kg/day once a day for 8 consecutive days (QD×8). To the vehicle-control group was administered 0.5% methylcellulose. 24 hr after the final administration, the wet weight of the mouse uterus was measured, and the relative uterine weight (%) to the vehicle control group was calculated by the following formula.
The relative uterine weight (unit: %) of the compound corresponding to each Example No. to the vehicle control group is shown in Table 100.

SF1-LBD = SF1-LBD (Homo sapiens, UniProt Q13285); assay: Inhibitory activity against binding of DAX1 to SF1-LBD (AlphaLISA); details: inhibition of binding of DAX1 peptide to His-SF1-LBD, read-out: cell-free SF1 IC50
SF1-LBD, sequence (Q13285 222-459 limits assumed): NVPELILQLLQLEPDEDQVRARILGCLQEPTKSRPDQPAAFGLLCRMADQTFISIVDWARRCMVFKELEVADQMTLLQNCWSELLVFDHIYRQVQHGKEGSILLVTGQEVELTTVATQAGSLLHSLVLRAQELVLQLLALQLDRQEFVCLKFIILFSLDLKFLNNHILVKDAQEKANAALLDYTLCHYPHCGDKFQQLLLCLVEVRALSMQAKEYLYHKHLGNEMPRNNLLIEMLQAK
Method: The binding activity of each compound to the SF-1 ligand binding domain (LBD) was evaluated using the binding inhibitory activity of each compound against binding of DAX1 to SF1-LBD as an index. 100 nM His-SF1-LBD, 2 nM Biotin-DAX1 peptide (Biotin-[…]-NH2) and each compound (8-point i1 dilution series with common ratio 2 from final concentration 2 μM) were mixed in assay buffer [25 mM HEPES (pH 7.5), 100 mM NaCl, 0.1% BSA, 0.01% CHAPS, 1 mM DTT] and reacted at room temperature for 30 min. Anti-6×His AlphaLISA Acceptor beads and Streptavidin-coated AlphaScreen Donor beads were mixed to a final concentrations of 5 μg/ml and 10 μg/ml, respectively, and reacted in the dark at room temperature for 60 min. AlphaLISA signals were detected using a multimode plate reader (EnVision Xcite, PerkinElmer). The binding rate of DAX1 peptide to SF1 was calculated from the luminescence amount (C) of the compound-free group and the luminescence amount (T) of the compound-added group, based on the following formula.
The DAX1 peptide binding rate at each concentration was analyzed using GraphPad Prism6 (GraphPad Software Inc.) to calculate the concentration (IC50 value) of each compound that inhibits 50% of the binding of DAX1 to SF1-LBD.

CYP11A1 = assay: Changes in SF1 target gene expression for NCI-H295R: CYP11A1 mRNA (qPCR); format: cell-based; details: Homo sapiens, NCI-H295R cells, 24 hr
Method: (§1) NCI-H295R cells were cultured in a 5% CO2 incubator at 37° C. using DMEM/F12 medium (Thermo Fisher Scientific Inc.) containing 2.5% Nu-Serum (registered trademark) Growth Medium Supplement (Corning) and 1% Corning ITS+ Premix Universal Culture Supplement (Corning). The DMSO solution of each compound was serially diluted with DMSO using a D300e Digital Dispenser (TECAN), and the compounds were added to a 96-well plate (FALCON). NCI-H295R cells were seeded at 1×10^4 cells/50 μL/well on the 96-well plate containing the compounds added thereto, and cultured for 24 hr in a 5% CO2 incubator at 37° C. The final DMSO concentration in the medium was adjusted to 0.1% (v/v) in all cases, and the concentration range of the compounds was set to 1000 nM to 0.32 nM with a common ratio […]. After the completion of culture, the medium was discarded, 50 μL/well of chilled D-PBS (Sigma Aldrich) was added to wash the cells, and D-PBS was discarded. After washing, 25 μL/well of Cells-to-CT (registered trademark) Bulk Lysis Reagents (Thermo Fisher Scientific, Inc.) was added to the wells, the mixture was stirred for 5 min with a plate mixer, and 2.5 μL/well of the reaction quenching liquid was added to prepare cell lysate. The cell lysate was dispensed into a 96-well plate (Corning) at 10 μL/well, and 40 μL/well of Cells-to-CT Bulk RT Reagents (Thermo Fisher Scientific, Inc.) was added. A reverse transcription reaction was performed at 37° C. for 50 min using a thermal cycler, and the reverse transcriptase was inactivated by heating at 95° C. for 5 min, and then stored at 10° C. PrimeTime (registered trademark) Gene Expression Master Mix (Integrated DNA Technologies), the target genes CYP11A1, CYP17A1, CYP21A2, or STAR, and the control gene ACTB PrimeTime (registered trademark) qPCR Probe Assays (Integrated DNA Technologies), and Nuclease free water were mixed at a ratio of 20:1:1:10 to prepare a PrimerProbe mix. The prepared PrimerProbe mix was added to a 384-well plate at 8 μL/well, and the cDNA obtained by reverse transcription was added at 2 μL/well. Real-Time PCR was performed under fast cycling conditions (95° C. for 3 min, followed by 40 cycles of 95° C. for 5 seconds and 62° C. for 30 seconds) to measure the fluorescent signal. The obtained data was analyzed using GraphPad Prism9 (GraphPad Software Inc.) to calculate the concentration (IC50 value) that reduces the mRNA expression level by 50%. The IC50 values (unit: nM) for CYP11A1, CYP17A1, CYP21A2, and STAR, of the compounds corresponding to each Example number are shown in Table 94.

CYP17A1 = assay: Changes in SF1 target gene expression for NCI-H295R: CYP17A1 mRNA (qPCR); format: cell-based; details: Homo sapiens, NCI-H295R cells, 24 hr
Method: as §1

CYP21A2 = assay: Changes in SF1 target gene expression for NCI-H295R: CYP21A2 mRNA (qPCR); format: cell-based; details: Homo sapiens, NCI-H295R cells, 24 hr
Method: as §1

STAR = assay: Changes in SF1 target gene expression for NCI-H295R: STAR mRNA (qPCR); format: cell-based; details: Homo sapiens, NCI-H295R cells, 24 hr
Method: as §1

Row | IC50 (SF1-LBD) [nM] | IC50 (CYP11A1) [nM] | IC50 (CYP17A1) [nM] | IC50 (CYP21A2) [nM] | IC50 (STAR) [nM] | SMILES | DC50 (SF-1) [nM] | GI50 (NCI-H295R cells) [nM] | tumor growth inhibition rate (%) [1] [%] | tumor growth inhibition rate (%) [2] [%] | relative uterine weight (%) (mouse uterus)
1 | – | – | – | – | – | COc1ccc([C@]2(CCN(Cc3ccc(C4=CC[C@H](CN5CCN(C(=O)c6ccc7c8c6CCCn8c(=O)n7C6CCC(=O)NC6=O)CC5)CC4)cc3)CC(C)(C)C(F)(F)F)CCOC(C)(C)C2)cc1 (stereo partly drawn) [AW5, 3-{7-[(4-{[(4R)-4′-{[{2-[(4R)-4-(4-Methoxyphenyl)-2,2-dimethyltetrahydro-2H-pyran-4-yl]ethyl)(3,3,3-trifluoro-2,2-dimethylpropyl)amino]methyl}-2,3,4,5-tetrahydro[biphenyl]-4-yl]methyl}piperazin-1-yl)carbonyl]-2-oxo-5,6-dihydro-4H-imidazo[4,5,1-ij]quinolin-1(2H)-yl}piperidine-2,6-dione] | 12 | 85 | 109 | 10 | 74
2 | – | – | – | – | – | COc1ccc([C@]2(CCN(Cc3ccc(C4=CC[C@H](C(=O)N5CCC(Nc6ccc7c8c6CCCn8c(=O)n7C6CCC(=O)NC6=O)CC5)CC4)c(F)c3)CC(C)(C)C(F)(F)F)CCOC(C)(C)C2)cc1 (stereo partly drawn) [BK9, 3-{7-[(1-{[(4R)-2′-Fluoro-4′-{[{2-[(4R)-4-(4-methoxyphenyl)-2,2-dimethyltetrahydro-2H-pyran-4-yl]ethyl)(3,3,3-trifluoro-2,2-dimethylpropyl)amino]methyl}-2,3,4,5-tetrahydro[biphenyl]-4-yl]carbonyl}piperidin-4-yl)amino]-2-oxo-5,6-dihydro-4H-imidazo[4,5,1-ij]quinolin-1(2H)-yl}piperidine-2,6-dione] | 3.2 | 24 | 131 | 43 | 56
3 | – | – | – | – | – | COc1ccc([C@]2(CCN(Cc3ccc(C4=CC[C@H](CN5CCN(C(=O)c6ccc7c8c6NCCn8c(=O)n7C6CCC(=O)NC6=O)CC5)CC4)cc3)CC(C)(C)C(F)(F)F)CCOC(C)(C)C2)cc1 (stereo partly drawn) [BY7, 3-{7-[(4-{[(4R)-4′-{[{2-[(4R)-4-(4-Methoxyphenyl)-2,2-dimethyltetrahydro-2H-pyran-4-yl]ethyl)(3,3,3-trifluoro-2,2-dimethylpropyl)amino]methyl}-2,3,4,5-tetrahydro[biphenyl]-4-yl]methyl}piperazin-1-yl)carbonyl]-2-oxo-5,6-dihydro-4H-imidazo[1,5,4-de]quinoxalin-1(2H)-yl}piperidine-2,6-dione] | 7.3 | 54 | 118 | 38 | 42
4 | 27 | 3.3 | 28 | 4.3 | 6.2 | CCO[C@@H](Cc1ccc(Oc2ccc(CN(CC[C@@]3(c4ccc(OC)cc4)CCOC(C)(C)C3)CC(C)(C)C(F)(F)F)cc2)cc1)C(=O)O [Example R3, (2S)-2-Ethoxy-3-[4-(4-{[{2-[(4R)-4-(4-methoxyphenyl)-2,2-dimethyltetrahydro-2H-pyran-4-yl]ethyl}(3,3,3-trifluoro-2,2-dimethylpropyl)amino]methyl}phenoxy)phenyl]propanoic acid] | – | – | – | – | –
5 | 22 | 1.2 | 12 | 2.2 | 3.2 | COc1ccc([C@]2(CCN(Cc3ccc(O[C@H]4CC[C@H](CC(=O)O)CC4)nc3)CC(C)(C)C(F)(F)F)CCOC(C)(C)C2)cc1 [Example S4, {Trans-4-[(5-{[{2-[(4R)-4-(4-methoxyphenyl)-2,2-dimethyltetrahydro-2H-pyran-4-yl]ethyl}(3,3,3-trifluoro-2,2-dimethylpropyl)amino]methyl}pyridin-2-yl)oxy]cyclohexyl)acetic acid] | – | – | – | – | –
6 | 26 | 1.2 | 24 | 2.4 | 4.1 | COc1ccc([C@]2(CCN(Cc3ccc(O[C@H]4CC[C@H](CC(=O)O)CC4)cc3)CC(C)(C)C(F)(F)F)CCOC(C)(C)C2)cc1 [Example T2, [Trans-4-(4-{[{2-[(4R)-4-(4-methoxyphenyl)-2,2-dimethyltetrahydro-2H-pyran-4-yl]ethyl}(3,3,3-trifluoro-2,2-dimethylpropyl)amino]methyl}phenoxy)cyclohexyl]acetic acid] | – | – | – | – | –
